Test results taken from the supplement of paper PMC11208160.

Assay: recombinant UMI read abundance after kanamycin selection (control-corrected) (log10(CPM+1)); higher = more efficient recombination; extreme values may be limits of the assay; sequences stand for … in AGTGCAGAGAAAATCGGCCAGTTTTCTCTGCCTGCAGTCCGCATGCCGTGGGACCCCTTGGGTTCTAACCTGTTGCCTAGATTTATGCAGCGGACTGCCTTTCTCCCAAAGTGATAAACCGG…AGGTTGGTTTCACT; site = the 11-nt donor
Procedure, shortened: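 Reported values are log10(CPM+1) from a pooled Escherichia coli screen of donor and donor-binding-loop pairs for the IS621 bridge recombinase. Selection used IPTG (0.07 mM) plus kanamycin, against unselected plating, each in two replicates. Recombinant UMIs were amplified across the donor–target junction, sequenced, converted to CPM, averaged over replicates and scaled by control-derived factors.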
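Further: IS621 bridge recombinase in Escherichia coli cells against a fixed T5 target plasmid.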

Row | Sequence | recombinant UMI read abundance (log10)
1 | CGGTTATCATGGACCGGTTTTCCCGGTAATCCGTATTTGCT (site CGGTTATCTAG) | 2.65
2 | CGGTTTACATGGACCGGTTTTCCCGGTAATCCGTATTTGCT (site CAGTTTACTAG) | 0
3 | CGGTTTACATGGACCGGTTTTCCCGGTAATCCGTATTTGCT (site CCGTTTACTAG) | 0.391
4 | CGGTTTACATGGACCGGTTTTCCCGGTAATCCGTATTTGCT (site CGGTTTACTAG) | 1.33
5 | CGGTTTACATGGACCGGTTTTCCCGGTAATCCGTATTTGCT (site CTGTTTACTAG) | 1.21
6 | CGTAAAGCATGGACCGGTTTTCCCGGTAATCCGTATTTGAT (site CATAAAGCTAT) | 0.355
7 | CGTAAAGCATGGACCGGTTTTCCCGGTAATCCGTATTTGAT (site CCTAAAGCTAT) | 0
8 | CGTAAAGCATGGACCGGTTTTCCCGGTAATCCGTATTTGAT (site CGTAAAGCTAT) | 2.44
9 | CGTAAAGCATGGACCGGTTTTCCCGGTAATCCGTATTTGAT (site CTTAAAGCTAT) | 0
10 | CGTAACACATGGACCGGTTTTCCCGGTAATCCGTATTTGCC (site CGTAACACTGG) | 2.01
11 | CGTAAGACATGGACCGGTTTTCCCGGTAATCCGTATTTGAG (site CGTAAGACTCT) | 1.73
12 | CGTAAGACATGGACCGGTTTTCCCGGTAATCCGTATTTGAG (site CGTCAGACTCT) | 0.0684
13 | CGTAAGACATGGACCGGTTTTCCCGGTAATCCGTATTTGAG (site CGTGAGACTCT) | 0.0574
14 | CGTAAGACATGGACCGGTTTTCCCGGTAATCCGTATTTGAG (site CGTTAGACTCT) | 0.396
15 | CGTACATCATGGACCGGTTTTCCCGGTAATCCGTATTTGCG (site CGTACATCTCG) | 1.29
16 | CGTACGTCATGGACCGGTTTTCCCGGTAATCCGTATTTGTT (site AGTACGTCTAA) | 0.0741
17 | CGTACGTCATGGACCGGTTTTCCCGGTAATCCGTATTTGTT (site CGTACGTCTAA) | 0.728
18 | CGTACGTCATGGACCGGTTTTCCCGGTAATCCGTATTTGTT (site GGTACGTCTAA) | 0.0115
19 | CGTACGTCATGGACCGGTTTTCCCGGTAATCCGTATTTGTT (site TGTACGTCTAA) | 0.00974
20 | CGTACTCCATGGACCGGTTTTCCCGGTAATCCGTATTTGCA (site CGTACTCCTTG) | 0.892
21 | CGTAGAACATGGACCGGTTTTCCCGGTAATCCGTATTTGTT (site CGTAGAACTAA) | 0.685
22 | CGTAGAACATGGACCGGTTTTCCCGGTAATCCGTATTTGTT (site CGTCGAACTAA) | 0.018
23 | CGTAGAACATGGACCGGTTTTCCCGGTAATCCGTATTTGTT (site CGTGGAACTAA) | 0.00623
24 | CGTAGAACATGGACCGGTTTTCCCGGTAATCCGTATTTGTT (site CGTTGAACTAA) | 0.0104
25 | CGTAGTGCATGGACCGGTTTTCCCGGTAATCCGTATTTGTT (site CGTAGTGCTAA) | 0.84

Row | Sequence | recombinant UMI read abundance (log10)
26 | CGTCCAGCATGGACCGGTTTTCCCGGTAATCCGTATTTGCT (site CGTCCAGCTAG) | 0.438
27 | CGTCGAACATGGACCGGTTTTCCCGGTAATCCGTATTTGAA (site CGTCGAACTTT) | 0.822
28 | CGTCGAACATGGACCGGTTTTCCCGGTAATCCGTATTTGTT (site CGTAGAACTAA) | 0
29 | CGTCGAACATGGACCGGTTTTCCCGGTAATCCGTATTTGTT (site CGTCGAACTAA) | 0
30 | CGTCGAACATGGACCGGTTTTCCCGGTAATCCGTATTTGTT (site CGTGGAACTAA) | 0
31 | CGTCGAACATGGACCGGTTTTCCCGGTAATCCGTATTTGTT (site CGTTGAACTAA) | 0.00437
32 | CGTCTATCATGGACCGGTTTTCCCGGTAATCCGTATTTGAT (site CGTCTATCTAT) | 0
33 | CGTCTCTCATGGACCGGTTTTCCCGGTAATCCGTATTTGGG (site CGTCTCTCTCC) | 0.0222
34 | CGTCTCTCATGGACCGGTTTTCCCGGTAATCCGTATTTGTA (site CATCTCTCTTA) | 1.13
35 | CGTCTCTCATGGACCGGTTTTCCCGGTAATCCGTATTTGTA (site CCTCTCTCTTA) | 1.04
36 | CGTCTCTCATGGACCGGTTTTCCCGGTAATCCGTATTTGTA (site CGTCTCTCTTA) | 2.64
37 | CGTCTCTCATGGACCGGTTTTCCCGGTAATCCGTATTTGTA (site CTTCTCTCTTA) | 1.33
38 | CGTCTGTCATGGACCGGTTTTCCCGGTAATCCGTATTTGAC (site CGTCTGTCTGT) | 0
39 | CGTGCAACATGGACCGGTTTTCCCGGTAATCCGTATTTGTT (site CGTGAAACTAA) | 0
40 | CGTGCAACATGGACCGGTTTTCCCGGTAATCCGTATTTGTT (site CGTGCAACTAA) | 0.0114
41 | CGTGCAACATGGACCGGTTTTCCCGGTAATCCGTATTTGTT (site CGTGGAACTAA) | 0.018
42 | CGTGCAACATGGACCGGTTTTCCCGGTAATCCGTATTTGTT (site CGTGTAACTAA) | 0.00375
43 | CGTGGAACATGGACCGGTTTTCCCGGTAATCCGTATTTGAT (site CGTGGAACTAA) | 0.00774
44 | CGTGGAACATGGACCGGTTTTCCCGGTAATCCGTATTTGAT (site CGTGGAACTAC) | 0
45 | CGTGGAACATGGACCGGTTTTCCCGGTAATCCGTATTTGAT (site CGTGGAACTAG) | 0
46 | CGTGGAACATGGACCGGTTTTCCCGGTAATCCGTATTTGAT (site CGTGGAACTAT) | 2.14
47 | CGTGGAACATGGACCGGTTTTCCCGGTAATCCGTATTTGTG (site CGTGGAACTAA) | 0.0173
48 | CGTGGAACATGGACCGGTTTTCCCGGTAATCCGTATTTGTG (site CGTGGAACTCA) | 1.16
49 | CGTGGAACATGGACCGGTTTTCCCGGTAATCCGTATTTGTG (site CGTGGAACTGA) | 0
50 | CGTGGAACATGGACCGGTTTTCCCGGTAATCCGTATTTGTG (site CGTGGAACTTA) | 1.61

Row | Sequence | recombinant UMI read abundance (log10)
51 | CGTGGAACATGGACCGGTTTTCCCGGTAATCCGTATTTGTT (site AGTGGAACTAA) | 0.101
52 | CGTGGAACATGGACCGGTTTTCCCGGTAATCCGTATTTGTT (site CATGGAACTAA) | 0.0194
53 | CGTGGAACATGGACCGGTTTTCCCGGTAATCCGTATTTGTT (site CCTGGAACTAA) | 0.0032
54 | CGTGGAACATGGACCGGTTTTCCCGGTAATCCGTATTTGTT (site CGAGGAACTAA) | 1.63
55 | CGTGGAACATGGACCGGTTTTCCCGGTAATCCGTATTTGTT (site CGCGGAACTAA) | 0.501
56 | CGTGGAACATGGACCGGTTTTCCCGGTAATCCGTATTTGTT (site CGGGGAACTAA) | 0.00685
57 | CGTGGAACATGGACCGGTTTTCCCGGTAATCCGTATTTGTT (site CGTAGAACTAA) | 1.15
58 | CGTGGAACATGGACCGGTTTTCCCGGTAATCCGTATTTGTT (site CGTCGAACTAA) | 0.0185
59 | CGTGGAACATGGACCGGTTTTCCCGGTAATCCGTATTTGTT (site CGTGAAACTAA) | 0
60 | CGTGGAACATGGACCGGTTTTCCCGGTAATCCGTATTTGTT (site CGTGCAACTAA) | 0.00967
61 | CGTGGAACATGGACCGGTTTTCCCGGTAATCCGTATTTGTT (site CGTGGAACTAA) | 1.72
62 | CGTGGAACATGGACCGGTTTTCCCGGTAATCCGTATTTGTT (site CGTGGAACTAC) | 0.303
63 | CGTGGAACATGGACCGGTTTTCCCGGTAATCCGTATTTGTT (site CGTGGAACTAG) | 0.951
64 | CGTGGAACATGGACCGGTTTTCCCGGTAATCCGTATTTGTT (site CGTGGAACTAT) | 0.403
65 | CGTGGAACATGGACCGGTTTTCCCGGTAATCCGTATTTGTT (site CGTGGAACTCA) | 0.251
66 | CGTGGAACATGGACCGGTTTTCCCGGTAATCCGTATTTGTT (site CGTGGAACTGA) | 0.938
67 | CGTGGAACATGGACCGGTTTTCCCGGTAATCCGTATTTGTT (site CGTGGAACTTA) | 0.841
68 | CGTGGAACATGGACCGGTTTTCCCGGTAATCCGTATTTGTT (site CGTGGACCTAA) | 0.071
69 | CGTGGAACATGGACCGGTTTTCCCGGTAATCCGTATTTGTT (site CGTGGAGCTAA) | 0.00766
70 | CGTGGAACATGGACCGGTTTTCCCGGTAATCCGTATTTGTT (site CGTGGATCTAA) | 0.524
71 | CGTGGAACATGGACCGGTTTTCCCGGTAATCCGTATTTGTT (site CGTGGCACTAA) | 0.0304
72 | CGTGGAACATGGACCGGTTTTCCCGGTAATCCGTATTTGTT (site CGTGGGACTAA) | 0.0232
73 | CGTGGAACATGGACCGGTTTTCCCGGTAATCCGTATTTGTT (site CGTGGTACTAA) | 0
74 | CGTGGAACATGGACCGGTTTTCCCGGTAATCCGTATTTGTT (site CGTGTAACTAA) | 0
75 | CGTGGAACATGGACCGGTTTTCCCGGTAATCCGTATTTGTT (site CGTTGAACTAA) | 0
